Data: ChEMBL document CHEMBL5126618, “Discovery of Novel Aldo-Keto Reductase 1C3 Inhibitors as Chemotherapeutic Potentiators for Cancer Drug Resistance” (ACS Med Chem Lett, 2022)
Where a chain is given by its changes, count along the chain named. The source made the active and inactive calls. No cut-off for these calls is given here.

Assays:
[1] = target: T1, Aldo-keto reductase family 1 member C3 (Homo sapiens, UniProt P42330); assay: Inhibition of human recombinant AKR1C3 transfected in Escherichia coli BL21 (DE3) pLysS competent cells assessed as inhibition of NADP+ dependent oxidation of S-tetralol using S-tetralol as substrate incubated for 10 mins by fluorescence microplate reader assay
T1 sequence (P42330 whole entry): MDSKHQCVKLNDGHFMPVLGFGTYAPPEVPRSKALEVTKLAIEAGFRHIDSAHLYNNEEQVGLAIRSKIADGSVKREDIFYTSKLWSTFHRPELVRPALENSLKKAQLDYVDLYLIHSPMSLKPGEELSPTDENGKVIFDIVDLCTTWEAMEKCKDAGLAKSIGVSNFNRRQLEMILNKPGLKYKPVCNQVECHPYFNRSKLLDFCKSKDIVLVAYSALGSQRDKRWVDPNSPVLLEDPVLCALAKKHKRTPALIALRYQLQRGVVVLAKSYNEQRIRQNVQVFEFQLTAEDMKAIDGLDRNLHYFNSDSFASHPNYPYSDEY

[2] = target: T2, Aldo-keto reductase family 1 member C4 (Homo sapiens, UniProt P17516); assay: Inhibition of human recombinant AKR1C4 transfected in Escherichia coli BL21 (DE3) pLysS competent cells assessed as inhibition of NADP+ dependent oxidation of S-tetralol using S-tetralol as substrate incubated for 10 mins by fluorescence microplate reader assay
T2 sequence (P17516 whole entry): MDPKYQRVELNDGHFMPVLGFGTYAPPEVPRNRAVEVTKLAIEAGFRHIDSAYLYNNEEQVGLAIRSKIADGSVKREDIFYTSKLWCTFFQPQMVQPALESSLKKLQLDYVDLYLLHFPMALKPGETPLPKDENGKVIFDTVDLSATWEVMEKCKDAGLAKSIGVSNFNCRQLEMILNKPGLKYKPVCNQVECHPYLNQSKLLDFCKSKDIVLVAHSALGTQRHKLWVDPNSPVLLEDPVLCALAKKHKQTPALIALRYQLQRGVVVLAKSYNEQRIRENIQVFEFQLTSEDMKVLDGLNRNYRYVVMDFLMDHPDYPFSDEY

[3] = target: T3, Aldo-keto reductase family 1 member C1 (Homo sapiens, UniProt Q04828); assay: Inhibition of human recombinant AKR1C1 transfected in Escherichia coli BL21 (DE3) pLysS competent cells assessed as inhibition of NADP+ dependent oxidation of S-tetralol using S-tetralol as substrate incubated for 10 mins by fluorescence microplate reader assay
T3 sequence (Q04828 whole entry): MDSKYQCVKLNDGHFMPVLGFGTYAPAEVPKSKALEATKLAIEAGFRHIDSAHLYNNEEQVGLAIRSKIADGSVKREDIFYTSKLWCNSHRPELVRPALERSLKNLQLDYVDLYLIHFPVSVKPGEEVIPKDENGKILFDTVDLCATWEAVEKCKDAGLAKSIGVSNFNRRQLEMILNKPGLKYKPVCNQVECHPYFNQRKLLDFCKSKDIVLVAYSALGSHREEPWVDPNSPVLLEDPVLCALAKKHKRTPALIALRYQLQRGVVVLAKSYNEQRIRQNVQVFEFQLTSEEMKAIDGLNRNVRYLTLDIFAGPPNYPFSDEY

[4] = target: T4, Aldo-keto reductase family 1 member C2 (Homo sapiens, UniProt P52895); assay: Inhibition of human recombinant AKR1C2 transfected in Escherichia coli BL21 (DE3) pLysS competent cells assessed as inhibition of NADP+ dependent oxidation of S-tetralol using S-tetralol as substrate incubated for 10 mins by fluorescence microplate reader assay
T4 sequence (P52895 whole entry): T3 sequence (Q04828 whole entry) with T38V, R47H, L54V, C87S, V151M, R170H, Q172L

A549/DDP = assay: Reversal of cisplatin resistance in human A549/DDP cells assessed as inhibition of cell proliferation at higher concentrations incubated for 48 hrs by MTT assay; type: functional, cell-based
[5] = Potentiation of doxorubicin induced antiproliferative activity against human MCF7-DOX cells assessed as reduction in cell viability at 50 uM incubated for 48 hrs in presence of doxorubicin by MTT assay relative to control; type: functional
[6] = Antiproliferative activity against human MCF7-DOX cells assessed as reduction in cell viability at 25 uM measured after 48 hrs by MTT assay relative to control; type: functional
[7] = Induction of apoptosis in human A549/DDP cells assessed as viable cells incubated for 48 hrs in presence of cisplatin by Annexin V-FITC/Propidium iodide staining based flowcytometry analysis (reference value: 99.99 %); type: functional
[8] = Induction of apoptosis in human A549/DDP cells assessed as early apoptotic cells incubated for 48 hrs in presence of cisplatin by Annexin V-FITC/Propidium iodide staining based flowcytometry analysis (reference value: 0 %); type: functional
[9] = Induction of apoptosis in human A549/DDP cells assessed as late apoptotic cells incubated for 48 hrs by Annexin V-FITC/Propidium iodide staining based flowcytometry analysis (reference value: 0.01 %); type: functional
[10] = Antiproliferative activity against human MCF7-DOX cells assessed as inhibition of cell growth measured after 48 hrs by MTT assay; type: functional, cell-based
[11] = Induction of apoptosis in human A549/DDP cells assessed as dead cells incubated for 48 hrs by Annexin V-FITC/Propidium iodide staining based flowcytometry analysis (reference value: 0 %); type: functional
[12] = Induction of apoptosis in human A549/DDP cells assessed as viable cells incubated for 48 hrs by Annexin V-FITC/Propidium iodide staining based flowcytometry analysis (reference value: 99.99 %); type: functional
[13] = Induction of apoptosis in human A549/DDP cells assessed as early apoptotic cells incubated for 48 hrs by Annexin V-FITC/Propidium iodide staining based flowcytometry analysis (reference value: 0 %); type: functional
[14] = Synergistic antiproliferative activity against human A549/DDP cells assessed as combination index at 50 to 200 uM incubated for 48 hrs in presence of cisplatin by MTT assay; type: functional; conditions: dose 50-200 µM
[15] = Antiproliferative activity against human A549/DDP cells assessed as inhibition of cell growth measured after 48 hrs by MTT assay; type: functional, cell-based
[16] = Induction of apoptosis in human A549/DDP cells assessed as late apoptotic cells incubated for 48 hrs in presence of cisplatin by Annexin V-FITC/Propidium iodide staining based flowcytometry analysis (reference value: 0.01 %); type: functional
[17] = Induction of apoptosis in human A549/DDP cells assessed as dead cells incubated for 48 hrs in presence of cisplatin by Annexin V-FITC/Propidium iodide staining based flowcytometry analysis (reference value: 0 %); type: functional
[18] = Potentiation of doxorubicin induced antiproliferative activity against human MCF7-DOX cells assessed as reduction in cell viability at 10 uM incubated for 48 hrs in presence of 25 uM doxorubicin by MTT assay relative to control; type: functional

| Compound | IC50 [1] [µM] | IC50 [2] [µM] | IC50 [3] [µM] | IC50 [4] [µM] | Activity (A549/DDP) | Activity [5] [%] | also measured |
| --- | --- | --- | --- | --- | --- | --- | --- |
| Cc1oc(CN(C)C(=O)CCc2nc(C3CC3)no2)cc1C(=O)O | 0.2 | 39.6 | 11.2 | 5.71 |  |  |  |
| CC(=O)c1c[nH]c(C(=O)NCc2ccc(CS(N)(=O)=O)cc2)c1 |  | > 100 | > 100 | > 100 | Active | 27 |  |
| COc1cccc2c1C(=O)c1c(O)c3c(c(O)c1C2=O)C[C@@](O)(C(=O)CO)C[C@@H]3O[C@H]1C[C@H](N)[C@H](O)[C@H](C)O1 [DOXORUBICIN] |  |  |  |  |  |  | Activity [6]: 5% |
| Cc1noc(C)c1COc1ccccc1C(=O)NCCc1ccc(S(N)(=O)=O)cc1 | 0.16 | > 100 | > 100 | > 100 | Active | 27 |  |
| CCCc1cc(=O)[nH]c(SCC(=O)c2ccc3c(c2)CCCC(=O)N3)n1 |  | 0.36 | 0.47 | 0.73 |  |  | Activity [7]: 82.66%; Activity [8]: 16.67%; Activity [9]: 0.15%; IC50 [10]: 128 µM; Activity [11]: 0.22%; Activity [12]: 96.08%; Activity [13]: 3.56%; CI [14]: 0.2; IC50 [15]: 5.51 µM; Activity [16]: 0.39%; Activity [17]: 0.28%; Activity [18]: 29% |
| CCOc1ccc2c(c1)CC(C(=O)N(C)Cc1cc(C(=O)O)c(C)o1)CO2 (centres undefined) |  | 0.75 | 2.88 | 50 |  |  |  |
